Experimental data: ChEMBL document CHEMBL3991601, “The target landscape of clinical kinase drugs” (Science, 2017)
Activity calls are given as the source filed them.

Experiments:
[1] = target: ATP-dependent RNA helicase DDX3X (Homo sapiens, UniProt O00571)
Activin receptor type-2B = Activin receptor type-2B (Homo sapiens, UniProt Q13705)
[2] = target: cAMP-dependent protein kinase type II-alpha regulatory subunit (Homo sapiens, UniProt P13861)
[3] = target: Bone morphogenetic protein receptor type-1B (Homo sapiens, UniProt O00238)
[4] = target: T1, Bifunctional phosphoribosylaminoimidazole carboxylase/phosphoribosylaminoimidazole succinocarboxamide synthetase (Homo sapiens, UniProt P22234)
T1 sequence (P22234 whole entry): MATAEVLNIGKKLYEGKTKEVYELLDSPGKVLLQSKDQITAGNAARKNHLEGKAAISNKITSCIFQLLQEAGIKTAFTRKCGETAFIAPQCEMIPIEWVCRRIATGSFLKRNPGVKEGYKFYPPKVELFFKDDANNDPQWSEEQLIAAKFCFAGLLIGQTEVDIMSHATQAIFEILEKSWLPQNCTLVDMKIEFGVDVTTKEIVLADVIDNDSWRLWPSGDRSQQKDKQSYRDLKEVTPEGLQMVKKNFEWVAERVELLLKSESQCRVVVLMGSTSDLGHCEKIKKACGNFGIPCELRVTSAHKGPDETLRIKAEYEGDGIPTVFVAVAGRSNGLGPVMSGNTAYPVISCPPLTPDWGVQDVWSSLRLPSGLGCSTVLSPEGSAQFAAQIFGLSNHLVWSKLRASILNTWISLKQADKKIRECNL

[5] = target: Platelet-derived growth factor receptor beta (Homo sapiens, UniProt P09619)
Scaffold protein ILK = target: T2, Scaffold protein ILK (Homo sapiens, UniProt Q13418)
T2 sequence (Q13418 whole entry): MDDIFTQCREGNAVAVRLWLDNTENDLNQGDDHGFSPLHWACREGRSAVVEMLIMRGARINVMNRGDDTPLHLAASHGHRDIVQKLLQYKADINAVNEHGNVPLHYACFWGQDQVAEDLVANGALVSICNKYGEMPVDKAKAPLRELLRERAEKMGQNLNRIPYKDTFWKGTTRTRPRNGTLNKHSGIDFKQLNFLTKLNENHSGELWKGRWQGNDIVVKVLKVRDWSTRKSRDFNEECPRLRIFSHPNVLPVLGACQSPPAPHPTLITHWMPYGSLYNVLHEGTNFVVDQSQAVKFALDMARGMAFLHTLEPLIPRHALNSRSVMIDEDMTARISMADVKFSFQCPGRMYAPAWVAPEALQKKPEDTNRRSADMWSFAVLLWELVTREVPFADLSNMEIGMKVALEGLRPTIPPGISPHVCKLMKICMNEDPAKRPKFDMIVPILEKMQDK

[6] = target: T3, Serine/threonine-protein kinase NLK (Homo sapiens, UniProt Q9UBE8)
T3 sequence (Q9UBE8 whole entry): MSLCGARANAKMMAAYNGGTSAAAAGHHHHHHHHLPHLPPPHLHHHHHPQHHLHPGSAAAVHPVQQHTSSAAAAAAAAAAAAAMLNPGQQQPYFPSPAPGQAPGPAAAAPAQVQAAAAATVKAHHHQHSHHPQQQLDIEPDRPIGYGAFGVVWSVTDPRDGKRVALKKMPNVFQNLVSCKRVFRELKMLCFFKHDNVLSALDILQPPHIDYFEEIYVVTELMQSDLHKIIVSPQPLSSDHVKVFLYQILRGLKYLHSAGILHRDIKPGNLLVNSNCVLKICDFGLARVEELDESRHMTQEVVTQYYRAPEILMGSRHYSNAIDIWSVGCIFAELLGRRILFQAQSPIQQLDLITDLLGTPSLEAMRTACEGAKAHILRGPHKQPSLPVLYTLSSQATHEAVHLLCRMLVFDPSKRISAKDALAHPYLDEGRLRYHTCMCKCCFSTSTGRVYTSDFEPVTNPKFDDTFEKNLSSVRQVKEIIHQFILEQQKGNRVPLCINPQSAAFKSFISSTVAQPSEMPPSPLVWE

[7] = target: T4, Tyrosine--tRNA ligase, cytoplasmic (Homo sapiens, UniProt P54577)
T4 sequence (P54577 whole entry): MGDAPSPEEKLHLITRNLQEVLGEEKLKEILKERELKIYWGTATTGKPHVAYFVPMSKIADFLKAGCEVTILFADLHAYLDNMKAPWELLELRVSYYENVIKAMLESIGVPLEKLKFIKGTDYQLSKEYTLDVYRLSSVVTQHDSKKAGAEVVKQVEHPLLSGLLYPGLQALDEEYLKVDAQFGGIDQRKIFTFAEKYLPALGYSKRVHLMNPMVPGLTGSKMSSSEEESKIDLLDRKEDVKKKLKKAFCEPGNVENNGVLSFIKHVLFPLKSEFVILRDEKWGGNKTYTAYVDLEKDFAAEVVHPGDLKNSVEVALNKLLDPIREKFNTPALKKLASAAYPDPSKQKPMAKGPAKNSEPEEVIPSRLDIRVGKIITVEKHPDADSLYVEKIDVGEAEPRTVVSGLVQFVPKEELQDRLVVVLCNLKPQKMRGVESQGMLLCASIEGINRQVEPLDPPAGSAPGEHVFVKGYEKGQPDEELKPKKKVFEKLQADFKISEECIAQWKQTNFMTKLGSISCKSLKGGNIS

[8] = target: Protein-tyrosine kinase 6 (Homo sapiens, UniProt Q13882)
[9] = target: Ribosomal protein S6 kinase alpha-3 (Homo sapiens, UniProt P51812)
Note: in the data inactive means no Kd found up to 30 µM.

Sequence of cAMP-dependent protein kinase type II-alpha regulatory subunit (P13861 whole entry): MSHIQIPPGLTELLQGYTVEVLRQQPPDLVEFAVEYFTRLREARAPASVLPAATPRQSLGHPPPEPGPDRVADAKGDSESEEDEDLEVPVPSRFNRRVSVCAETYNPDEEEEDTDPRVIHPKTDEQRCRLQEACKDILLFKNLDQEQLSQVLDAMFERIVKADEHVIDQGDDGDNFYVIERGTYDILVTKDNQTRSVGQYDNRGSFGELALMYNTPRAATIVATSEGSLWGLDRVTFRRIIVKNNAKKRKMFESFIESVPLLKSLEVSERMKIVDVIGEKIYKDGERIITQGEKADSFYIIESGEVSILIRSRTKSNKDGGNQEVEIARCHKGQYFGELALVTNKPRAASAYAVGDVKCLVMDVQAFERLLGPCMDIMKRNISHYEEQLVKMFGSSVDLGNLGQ
Sequence of Protein-tyrosine kinase 6 (Q13882 whole entry): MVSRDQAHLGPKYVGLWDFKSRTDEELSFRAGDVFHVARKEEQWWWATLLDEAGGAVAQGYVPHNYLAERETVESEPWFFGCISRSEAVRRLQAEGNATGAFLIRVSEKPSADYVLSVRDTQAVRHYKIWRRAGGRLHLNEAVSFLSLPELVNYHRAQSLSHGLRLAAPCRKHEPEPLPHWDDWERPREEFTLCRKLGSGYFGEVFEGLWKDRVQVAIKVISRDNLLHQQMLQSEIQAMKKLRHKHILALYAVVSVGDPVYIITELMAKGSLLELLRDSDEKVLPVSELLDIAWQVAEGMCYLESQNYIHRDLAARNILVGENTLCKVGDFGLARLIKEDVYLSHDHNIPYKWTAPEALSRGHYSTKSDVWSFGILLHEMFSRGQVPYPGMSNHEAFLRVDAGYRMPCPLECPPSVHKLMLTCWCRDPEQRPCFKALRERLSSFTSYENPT
Sequence of ATP-dependent RNA helicase DDX3X (O00571 whole entry): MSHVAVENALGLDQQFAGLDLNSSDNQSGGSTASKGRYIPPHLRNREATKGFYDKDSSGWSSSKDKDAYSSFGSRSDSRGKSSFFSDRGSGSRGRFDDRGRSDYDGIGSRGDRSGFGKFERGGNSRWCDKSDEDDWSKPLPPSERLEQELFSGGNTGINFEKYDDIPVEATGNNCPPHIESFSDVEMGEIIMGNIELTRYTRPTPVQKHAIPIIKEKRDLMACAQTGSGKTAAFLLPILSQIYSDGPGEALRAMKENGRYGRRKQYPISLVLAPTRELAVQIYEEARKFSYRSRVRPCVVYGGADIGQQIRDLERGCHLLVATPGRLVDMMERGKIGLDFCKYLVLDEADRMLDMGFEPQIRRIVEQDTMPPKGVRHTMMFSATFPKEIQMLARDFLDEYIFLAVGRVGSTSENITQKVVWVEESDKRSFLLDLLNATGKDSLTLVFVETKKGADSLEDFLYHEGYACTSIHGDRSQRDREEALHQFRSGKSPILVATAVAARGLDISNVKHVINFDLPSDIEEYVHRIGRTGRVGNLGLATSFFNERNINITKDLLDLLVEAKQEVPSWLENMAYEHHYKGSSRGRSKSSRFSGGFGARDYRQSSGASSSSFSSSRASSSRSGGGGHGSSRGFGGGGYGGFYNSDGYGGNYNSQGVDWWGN
Sequence of Activin receptor type-2B (Q13705 whole entry): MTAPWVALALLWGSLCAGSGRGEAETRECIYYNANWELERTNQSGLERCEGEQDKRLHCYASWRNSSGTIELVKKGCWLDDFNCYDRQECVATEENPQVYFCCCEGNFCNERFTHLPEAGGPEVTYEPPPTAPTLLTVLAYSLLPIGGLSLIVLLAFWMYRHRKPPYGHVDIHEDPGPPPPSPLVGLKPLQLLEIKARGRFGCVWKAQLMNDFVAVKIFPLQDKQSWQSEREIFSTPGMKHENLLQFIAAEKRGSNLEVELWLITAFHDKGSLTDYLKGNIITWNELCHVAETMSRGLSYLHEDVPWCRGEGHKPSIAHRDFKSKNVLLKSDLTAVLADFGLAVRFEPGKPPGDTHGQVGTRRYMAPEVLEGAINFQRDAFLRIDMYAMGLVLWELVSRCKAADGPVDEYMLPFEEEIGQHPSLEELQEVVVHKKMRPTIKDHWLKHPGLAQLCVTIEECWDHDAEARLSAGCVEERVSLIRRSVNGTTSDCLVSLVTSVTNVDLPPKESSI
Sequence of Bone morphogenetic protein receptor type-1B (O00238 whole entry): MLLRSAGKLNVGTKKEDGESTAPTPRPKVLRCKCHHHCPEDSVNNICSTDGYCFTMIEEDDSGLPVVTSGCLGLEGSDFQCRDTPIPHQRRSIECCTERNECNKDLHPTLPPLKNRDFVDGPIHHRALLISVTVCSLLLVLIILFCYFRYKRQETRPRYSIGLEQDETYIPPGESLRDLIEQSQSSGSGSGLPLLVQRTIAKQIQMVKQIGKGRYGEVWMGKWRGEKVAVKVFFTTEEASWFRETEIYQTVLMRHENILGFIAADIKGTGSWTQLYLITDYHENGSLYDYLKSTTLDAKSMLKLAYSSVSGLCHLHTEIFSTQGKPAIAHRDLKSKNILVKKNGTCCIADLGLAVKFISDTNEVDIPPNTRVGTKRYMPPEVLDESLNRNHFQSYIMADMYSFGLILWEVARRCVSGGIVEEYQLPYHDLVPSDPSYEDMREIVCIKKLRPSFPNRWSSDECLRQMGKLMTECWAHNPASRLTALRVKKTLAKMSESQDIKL
Sequence of Platelet-derived growth factor receptor beta (P09619 whole entry): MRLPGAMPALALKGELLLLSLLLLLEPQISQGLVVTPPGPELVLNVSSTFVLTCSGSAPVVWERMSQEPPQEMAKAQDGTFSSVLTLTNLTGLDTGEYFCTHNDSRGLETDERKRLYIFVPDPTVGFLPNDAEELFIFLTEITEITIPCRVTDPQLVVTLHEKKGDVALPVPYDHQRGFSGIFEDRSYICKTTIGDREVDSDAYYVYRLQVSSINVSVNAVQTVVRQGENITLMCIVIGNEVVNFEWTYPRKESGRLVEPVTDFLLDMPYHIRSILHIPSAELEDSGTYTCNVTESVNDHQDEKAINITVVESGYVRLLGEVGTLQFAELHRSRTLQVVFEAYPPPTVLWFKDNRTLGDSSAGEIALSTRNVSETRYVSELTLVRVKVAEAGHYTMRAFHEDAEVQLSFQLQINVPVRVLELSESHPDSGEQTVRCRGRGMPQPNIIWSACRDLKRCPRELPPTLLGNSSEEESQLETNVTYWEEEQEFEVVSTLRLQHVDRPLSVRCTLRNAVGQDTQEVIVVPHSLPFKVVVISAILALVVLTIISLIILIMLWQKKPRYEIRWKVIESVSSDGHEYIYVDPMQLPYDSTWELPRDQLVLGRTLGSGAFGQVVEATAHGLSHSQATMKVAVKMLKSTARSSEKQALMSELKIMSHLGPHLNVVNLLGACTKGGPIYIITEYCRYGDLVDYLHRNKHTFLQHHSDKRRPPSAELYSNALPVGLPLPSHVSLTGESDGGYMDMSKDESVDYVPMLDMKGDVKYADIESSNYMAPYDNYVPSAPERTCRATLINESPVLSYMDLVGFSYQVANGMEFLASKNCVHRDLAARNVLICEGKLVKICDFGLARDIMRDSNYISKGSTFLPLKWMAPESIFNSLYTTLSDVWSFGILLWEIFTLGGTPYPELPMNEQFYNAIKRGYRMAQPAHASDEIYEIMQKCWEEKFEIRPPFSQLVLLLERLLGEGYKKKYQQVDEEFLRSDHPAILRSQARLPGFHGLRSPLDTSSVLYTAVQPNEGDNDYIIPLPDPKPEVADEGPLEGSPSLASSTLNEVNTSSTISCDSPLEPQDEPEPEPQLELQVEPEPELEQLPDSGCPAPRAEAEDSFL
Sequence of Ribosomal protein S6 kinase alpha-3 (P51812 whole entry): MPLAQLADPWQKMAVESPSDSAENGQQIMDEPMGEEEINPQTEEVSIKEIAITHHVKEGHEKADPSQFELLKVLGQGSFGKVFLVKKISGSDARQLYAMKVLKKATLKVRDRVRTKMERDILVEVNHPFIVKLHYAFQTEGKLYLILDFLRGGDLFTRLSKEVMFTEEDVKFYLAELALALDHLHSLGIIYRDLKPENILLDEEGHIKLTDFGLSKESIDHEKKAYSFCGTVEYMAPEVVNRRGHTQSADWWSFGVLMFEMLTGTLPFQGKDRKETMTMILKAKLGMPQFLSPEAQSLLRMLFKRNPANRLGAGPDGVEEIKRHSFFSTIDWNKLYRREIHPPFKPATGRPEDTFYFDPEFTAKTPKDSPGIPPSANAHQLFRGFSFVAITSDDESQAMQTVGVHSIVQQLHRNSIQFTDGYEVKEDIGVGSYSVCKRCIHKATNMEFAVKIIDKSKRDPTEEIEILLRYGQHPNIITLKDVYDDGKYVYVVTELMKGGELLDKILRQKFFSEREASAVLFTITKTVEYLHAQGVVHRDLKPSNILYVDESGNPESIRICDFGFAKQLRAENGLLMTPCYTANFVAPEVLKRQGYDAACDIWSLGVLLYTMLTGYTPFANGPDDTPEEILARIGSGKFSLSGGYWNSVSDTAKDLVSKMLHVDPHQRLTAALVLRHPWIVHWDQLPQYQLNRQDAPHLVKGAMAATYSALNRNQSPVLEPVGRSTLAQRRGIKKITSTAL

C=CCn1c(=O)c2cnc(Nc3ccc(N4CCN(C)CC4)cc3)nc2n1-c1cccc(C(C)(C)O)n1 [ADAVOSERTIB]
Kd [1]: > 30 µM (inactive)
Kd (Activin receptor type-2B): > 30 µM (inactive)
Kd [2]: > 30 µM (inactive)
Kd [3]: > 30 µM (inactive)
Kd [4]: > 30 µM (inactive)
Kd [5]: > 30 µM (inactive)
Kd (Scaffold protein ILK): > 30 µM (inactive)
Kd [6]: > 30 µM (inactive)
Kd [7]: > 30 µM (inactive)
Kd [8]: > 30 µM (inactive)

CN(C)C/C=C/C(=O)Nc1cc2c(Nc3ccc(F)c(Cl)c3)ncnc2cc1O[C@H]1CCOC1 [AFATINIB]
Kd [1]: > 30 µM (inactive)
Kd [2]: > 30 µM (inactive)
Kd [4]: > 30 µM (inactive)
Kd (Scaffold protein ILK): > 30 µM (inactive)
Kd [7]: > 30 µM (inactive)

CCN(CCCOc1ccc2c(Nc3cc(CC(=O)Nc4cccc(F)c4)n[nH]3)ncnc2c1)CCOP(=O)(O)O [BARASERTIB]
Kd [1]: > 30 µM (inactive)
Kd (Activin receptor type-2B): > 30 µM (inactive)
Kd [2]: > 30 µM (inactive)
Kd [3]: > 30 µM (inactive)
Kd [4]: > 30 µM (inactive)
Kd [6]: > 30 µM (inactive)
Kd [7]: > 30 µM (inactive)
Kd [8]: > 30 µM (inactive)

C[C@@]1(C(=O)Nc2ccc(F)nc2)CCCN1c1nc(Nc2cc(C3CC3)n[nH]2)c2cccn2n1 [BMS-754807]
Kd [1]: > 30 µM (inactive)
Kd [4]: > 30 µM (inactive)
Kd (Scaffold protein ILK): > 30 µM (inactive)
Kd [7]: > 30 µM (inactive)

COc1cc2c(Oc3ccc4[nH]c(C)cc4c3F)ncnc2cc1OCCCN1CCCC1 [CEDIRANIB]
Kd [1]: > 30 µM (inactive)
Kd [2]: > 30 µM (inactive)
Kd [4]: > 30 µM (inactive)
Kd (Scaffold protein ILK): > 30 µM (inactive)
Kd [7]: > 30 µM (inactive)
Kd [8]: 1.22 µM (active)

CC1(COc2ccc3c(c2)ncn3-c2ccc3cccc(N4CCC(N)CC4)c3n2)COC1 [CRENOLANIB]
Kd [1]: > 30 µM (inactive)
Kd [9]: > 30 µM (inactive)
Kd (Activin receptor type-2B): > 30 µM (inactive)
Kd [2]: > 30 µM (inactive)
Kd [3]: > 30 µM (inactive)
Kd [4]: > 30 µM (inactive)
Kd (Scaffold protein ILK): 1.33 µM
Kd [6]: > 30 µM (inactive)
Kd [7]: 3.32 µM
Kd [8]: > 30 µM (inactive)

Cn1c(=O)n(-c2ccc(C(C)(C)C#N)cc2)c2c3cc(-c4cnc5ccccc5c4)ccc3ncc21 [DACTOLISIB]
Kd [1]: > 30 µM (inactive)
Kd (Activin receptor type-2B): > 30 µM (inactive)
Kd [2]: > 30 µM (inactive)
Kd [4]: > 30 µM (inactive)
Kd (Scaffold protein ILK): > 30 µM (inactive)
Kd [6]: > 30 µM (inactive)
Kd [7]: > 30 µM (inactive)
Kd [8]: > 30 µM (inactive)

O=S(=O)(c1cccc2cnccc12)N1CCCNCC1 [FASUDIL]
Kd [1]: > 30 µM (inactive)
Kd (Activin receptor type-2B): > 30 µM (inactive)
Kd [2]: > 30 µM (inactive)
Kd [4]: > 30 µM (inactive)
Kd [5]: > 30 µM (inactive)
Kd (Scaffold protein ILK): > 30 µM (inactive)
Kd [6]: > 30 µM (inactive)
Kd [7]: > 30 µM (inactive)
Kd [8]: > 30 µM (inactive)

CCc1nc(C(N)=O)c(Nc2ccc(N3CCC(N4CCN(C)CC4)CC3)c(OC)c2)nc1NC1CCOCC1 [GILTERITINIB]
Kd [1]: > 30 µM (inactive)
Kd [9]: 2.66 µM (active)
Kd (Activin receptor type-2B): > 30 µM (inactive)
Kd [2]: > 30 µM (inactive)
Kd [4]: 5.48 µM
Kd [5]: 0.51 µM (active)
Kd (Scaffold protein ILK): > 30 µM (inactive)
Kd [6]: > 30 µM (inactive)
Kd [7]: > 30 µM (inactive)
Kd [8]: > 30 µM (inactive)
